Source: patent US20260015350A1, “AZAQUINAZOLINE PAN-KRAS INHIBITORS” (Mirati Therapeutics, Inc., priority 2022, published 2026)

Assays:
[1] = tested on: KRas-mediated phosphorylation of ERK in AsPC-1 cells; test: Inhibition of KRas-mediated phosphorylation of ERK (Cisbio HTRF pERK), AsPC-1 cells; assay type: cell-based; settings: Homo sapiens, ASPC1, AsPC-1 cells; HTRF pERK
Summary of the method: (§1)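 Signal read by HTRF (d2/Cryptate antibody pair, 2 hr room-temperature incubation on lysate). Cells: 6,000 per well, 3 hr compound exposure. Titration: 10 uM highest, 3-fold, 10 points.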

[2] = tested on: KRas-mediated phosphorylation of ERK in HCT116 cells; test: Inhibition of KRas-mediated phosphorylation of ERK (Cisbio HTRF pERK), HCT116 cells; assay type: cell-based; settings: Homo sapiens, HCT-116, HTRF pERK
Summary of the method: (§2)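 Using 6,000 cells per well, compounds are applied for 3 hrs and cells then lysed at 4° C with shaking for 40 mins. Phospho-ERK is measured by HTRF after 2 hrs of lysate incubation with the d2/Cryptate antibody mixture.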

KRas^WT = biological target: T1, KRas^WT (Homo sapiens, UniProt P01116); test: KRas binding assay (TR-FRET tracer displacement), KRas WT; settings: TR-FRET tracer displacement, KRas WT
T1 construct: Biotinylated KRas (corresponding to amino acids 1-169, produced at Accelegan Inc.); biotin (biotinylated); purchased Accelegan Inc

KRas^G12D = biological target: T2, KRas^G12D (Homo sapiens, UniProt P01116, G12D); test: KRas binding assay (TR-FRET tracer displacement), KRas G12D
T2 construct: Biotinylated KRas (corresponding to amino acids 1-169, produced at Accelegan Inc.); biotin (biotinylated); purchased Accelegan Inc

KRas^G12C = biological target: T3, KRas^G12C (Homo sapiens, UniProt P01116, G12C); test: KRas binding assay (TR-FRET tracer displacement), KRas G12C; settings: TR-FRET tracer displacement, KRas G12C
T3 construct: Biotinylated KRas (corresponding to amino acids 1-169, produced at Accelegan Inc.); biotin (biotinylated); purchased Accelegan Inc

[3] = tested on: KRas-mediated phosphorylation of ERK in H460 cells; test: Inhibition of KRas-mediated phosphorylation of ERK (Cisbio HTRF pERK), H460 cells; assay type: cell-based; settings: Homo sapiens, NCI-H460, HTRF pERK
Summary of the method: as §1

KRas^G12S = biological target: T4, KRas^G12S (Homo sapiens, UniProt P01116, G12S); test: KRas binding assay (TR-FRET tracer displacement), KRas G12S; settings: TR-FRET tracer displacement, KRas G12S
T4 construct: Biotinylated KRas (corresponding to amino acids 1-169, produced at Accelegan Inc.); biotin (biotinylated); purchased Accelegan Inc

[4] = tested on: KRas-mediated phosphorylation of ERK in H358 cells; test: Inhibition of KRas-mediated phosphorylation of ERK (Cisbio HTRF pERK), H358 cells; assay type: cell-based; settings: Homo sapiens, NCI-H358, HTRF pERK
Summary of the method: as §1

[5] = tested on: KRas-mediated phosphorylation of ERK in H727 cells; test: Inhibition of KRas-mediated phosphorylation of ERK (Cisbio HTRF pERK), H727 cells; assay type: cell-based; settings: Homo sapiens, NCI-H727, H727 cells; HTRF pERK
Summary of the method: as §1

[6] = tested on: KRas-mediated phosphorylation of ERK in A549 cells; test: Inhibition of KRas-mediated phosphorylation of ERK (Cisbio HTRF pERK), A549 cells; assay type: cell-based; settings: Homo sapiens, HTRF pERK
Summary of the method: as §2

[7] = tested on: KRas-mediated phosphorylation of ERK in MKN1 cells; test: Inhibition of KRas-mediated phosphorylation of ERK (Cisbio HTRF pERK), MKN1 cells; assay type: cell-based; settings: Homo sapiens, MKN-1
Summary of the method: (§3)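 Seeding density was 6,000 cells/well; medium RPMI, 10% FBS. Read-out by homogeneous time-resolved fluorescence (pERK) after 4 hours covered at room temperature.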

KRas^G12V = biological target: T5, KRas^G12V (Homo sapiens, UniProt P01116, G12V); test: KRas binding assay (TR-FRET tracer displacement), KRas G12V
T5 construct: Biotinylated KRas (corresponding to amino acids 1-169, produced at Accelegan Inc.); biotin (biotinylated); purchased Accelegan Inc

[8] = tested on: KRas-mediated phosphorylation of ERK in PSN1 cells; test: Inhibition of KRas-mediated phosphorylation of ERK (Cisbio HTRF pERK), PSN1 cells; assay type: cell-based; settings: Homo sapiens
Summary of the method: as §3

T5 sequence (P01116 1-169 isoform P01116-2 G12V): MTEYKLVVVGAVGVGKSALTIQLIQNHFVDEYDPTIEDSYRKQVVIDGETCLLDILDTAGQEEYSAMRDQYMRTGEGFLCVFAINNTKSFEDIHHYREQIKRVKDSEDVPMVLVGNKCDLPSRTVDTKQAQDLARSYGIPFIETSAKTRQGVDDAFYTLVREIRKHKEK
T2 sequence (P01116 1-169 isoform P01116-2 G12D): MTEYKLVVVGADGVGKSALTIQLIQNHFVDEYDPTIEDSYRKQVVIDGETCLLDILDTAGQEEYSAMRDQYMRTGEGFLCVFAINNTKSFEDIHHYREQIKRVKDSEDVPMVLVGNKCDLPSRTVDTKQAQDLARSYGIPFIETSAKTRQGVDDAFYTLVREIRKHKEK
T1 sequence (P01116 1-169 isoform P01116-2): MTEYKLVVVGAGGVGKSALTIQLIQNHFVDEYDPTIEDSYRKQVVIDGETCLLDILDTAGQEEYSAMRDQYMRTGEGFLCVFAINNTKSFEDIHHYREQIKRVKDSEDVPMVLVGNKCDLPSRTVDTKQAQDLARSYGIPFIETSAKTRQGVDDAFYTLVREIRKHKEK
T3 sequence (P01116 1-169 isoform P01116-2 G12C): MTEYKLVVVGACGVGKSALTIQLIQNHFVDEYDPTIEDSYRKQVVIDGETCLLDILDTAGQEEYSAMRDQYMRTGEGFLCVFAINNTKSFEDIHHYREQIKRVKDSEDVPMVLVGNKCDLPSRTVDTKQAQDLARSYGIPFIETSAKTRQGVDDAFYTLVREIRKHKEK
T4 sequence (P01116 1-169 isoform P01116-2 G12S): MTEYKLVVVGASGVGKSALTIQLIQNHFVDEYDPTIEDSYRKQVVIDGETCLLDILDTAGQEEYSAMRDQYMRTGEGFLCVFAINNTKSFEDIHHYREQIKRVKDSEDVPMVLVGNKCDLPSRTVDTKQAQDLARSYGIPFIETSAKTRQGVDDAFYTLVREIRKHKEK

| IC50 [1] [nM] | IC50 [2] [nM] | IC50 (KRas^WT) [nM] | IC50 (KRas^G12D) [nM] | IC50 (KRas^G12C) [nM] | IC50 [3] [nM] | IC50 (KRas^G12S) [nM] | IC50 [4] [nM] | IC50 [5] [nM] | IC50 [6] [nM] | IC50 [7] [nM] | IC50 (KRas^G12V) [nM] | IC50 [8] [nM] | Structure (SMILES) |
| --- | --- | --- | --- | --- | --- | --- | --- | --- | --- | --- | --- | --- | --- |
| 262 |  | 7 | 14 | 7 |  | 5 |  | 118 |  | 14 | 4 | > 10000 | CCc1c(F)ccc2cc(O)cc(-c3ncc4c(N5C[C@@H]6C[C@H](C5)[C@H](O)C6)nc(OCC56CCCN5CC(F)(F)C6)nc4c3F)c12 (stereo partly drawn) [Example 924, (1R,5R,6R)-3-(2-((2,2-difluorotetrahydro-1H-pyrrolizin-7a(5H)-yl)methoxy)-7-(8-ethyl-7-fluoro-3-hydroxynaphthalen-1-yl)-8-fluoropyrido[4,3-d]pyrimidin-4-yl)-3-azabicyclo[3.2.1]octan-6-ol] |
| 826 |  | 3 | 6 | 4 |  | 3 |  | 302 |  | 9 | 2 | > 10000 | CCc1c(F)ccc2cc(O)cc(-c3ncc4c(N5C[C@@H]6C[C@H](C5)[C@H](O)C6)nc(OC[C@@]56CCCN5C[C@@H](OC)C6)nc4c3F)c12 [Example 925, (1R,5R,6R)-3-(7-(8-ethyl-7-fluoro-3-hydroxynaphthalen-1-yl)-8-fluoro-2-(((2S,7aS)-2-methoxytetrahydro-1H-pyrrolizin-7a(5H)-yl)methoxy)pyrido[4,3-d]pyrimidin-4-yl)-3-azabicyclo[3.2.1]octan-6-ol] |
| 66 |  | < 2 | 2 | < 2 |  | < 2 |  | 29 |  | 0.7 | < 2 | 3000 | CCc1c(F)ccc2cc(O)cc(-c3ncc4c(N5C[C@@H]6C[C@H](C5)[C@H](O)C6)nc(OC[C@@]56CCCN5C[C@H](OC)C6)nc4c3F)c12 [Example 926, (1R,5R,6R)-3-(7-(8-ethyl-7-fluoro-3-hydroxynaphthalen-1-yl)-8-fluoro-2-(((2R,7aS)-2-methoxytetrahydro-1H-pyrrolizin-7a(5H)-yl)methoxy)pyrido[4,3-d]pyrimidin-4-yl)-3-azabicyclo[3.2.1]octan-6-ol] |
| 468 |  | 6 | 13 | 7 |  | 5 |  | 202 |  | 17 | 4 | > 10000 | CCc1c(F)ccc2cc(O)cc(-c3ncc4c(N5C[C@@H]6C[C@H](C5)[C@H](O)C6)nc(OC[C@@]56CCCN5C[C@@H](F)C6)nc4c3F)c12 [Example 927, (1R,5R,6R)-3-(7-(8-ethyl-7-fluoro-3-hydroxynaphthalen-1-yl)-8-fluoro-2-(((2S,7aS)-2-fluorotetrahydro-1H-pyrrolizin-7a(5H)-yl)methoxy)pyrido[4,3-d]pyrimidin-4-yl)-3-azabicycle[3.2.1]octan-6-ol] |
| 74 |  | < 2 | 2 | < 2 |  | < 2 |  | 33 |  | 3 | < 2 | 2840 | CCc1c(F)ccc2cc(O)cc(-c3ncc4c(N5C[C@@H]6C[C@H](C5)[C@H](O)C6)nc(OCC56CCCN5C(C)CC6)nc4c3F)c12 (stereo partly drawn) [Example 928, (1R,5R,6R)-3-(7-(8-ethyl-7-fluoro-3-hydroxynaphthalen-1-yl)-8-fluoro-2-((3-methyltetrahydro-1H-pyrrolizin-7a(5H)-yl)methoxy)pyrido[4,3-d]pyrimidin-4-yl)-3-azabicyclo[3.2.1]octan-6-ol] |

More lines, now with the values behind:

| Structure (SMILES) | IC50 [1] [nM] | IC50 [2] [nM] | IC50 (KRas^WT) [nM] | IC50 (KRas^G12D) [nM] | IC50 (KRas^G12C) [nM] | IC50 [3] [nM] | IC50 (KRas^G12S) [nM] | IC50 [4] [nM] | IC50 [5] [nM] | IC50 [6] [nM] | IC50 [7] [nM] | IC50 (KRas^G12V) [nM] | IC50 [8] [nM] |
| --- | --- | --- | --- | --- | --- | --- | --- | --- | --- | --- | --- | --- | --- |
| CCc1c(F)ccc2cc(O)cc(-c3ncc4c(N5CCC[C@@](C)(O)C5)nc(OC[C@@]56CCCN5CC(=C(F)F)C6)nc4c3F)c12 (single isomer, unassigned) [Example 918] | 3 | 12 | < 2 | < 2 | < 2 | 5 | < 2 | 3 | 17 | 4 | 1 | < 2 | 490 |
| CCc1c(F)ccc2cc(O)cc(-c3ncc4c(N5CCC[C@@](C)(O)C5)nc(OC[C@]56CCCN5CC(=C(F)F)C6)nc4c3F)c12 (single isomer, unassigned) [Example 919] | 14 | 37 | < 2 | < 2 | < 2 | 10 | < 2 | 14 | 43 | 19 | 3 | < 2 | 2480 |
| C[C@@H]1C[C@@H]1c1c(Cl)cc(O)cc1-c1ncc2c(N3C[C@@H]4C[C@H](C3)[C@H](O)C4)nc(OC[C@@]34CCCN3C[C@H](F)C4)nc2c1F (stereo in doubt) [Example 920, (1R,5R,6R)-3-(7-(3-chloro-5-hydroxy-2-(cis-2-methylcyclopropyl)phenyl)-8-fluoro-2-(((2R,7aS)-2-fluorotetrahydro-1H-pyrrolizin-7a(5H)-yl)methoxy)pyrido[4,3-d]pyrimidin-4-yl)-3-azabicyclo[3.2.1]octan-6-ol] | 77 | 44 | 2 | 4 | < 2 | 15 | < 2 | 12 | 42 | 19 | 4 | < 2 | 2060 |
| C[C@@H]1C[C@@H]1c1c(Cl)cc(O)cc1-c1ncc2c(N3CCCC4(CNS(=O)(=O)N4)C3)nc(OC[C@@]34CCCN3C[C@H](F)C4)nc2c1F (stereo in doubt) [Example 929, 7-(7-(3-chloro-5-hydroxy-2-(cis-2-methylcyclopropyl)phenyl)-8-fluoro-2-(((2R,7aS)-2-fluorotetrahydro-1H-pyrrolizin-7a(5H)-yl)methoxy)pyrido[4,3-d]pyrimidin-4-yl)-2-thia-1,3,7-triazaspiro[4.5]decane 2,2-dioxide] | 60 | 137 | < 2 | 2 | < 2 | 41 | < 2 | 14 | 163 | 84 | 17 | < 2 | 397 |
| CCc1c(F)ccc2cc(O)cc(-c3ncc4c(N5C[C@@H]6C[C@H](C5)[C@H](O)C6)nc(OCC56CCCN5C/C(=C\F)C6)nc4c3F)c12 (stereo partly drawn) [Example 793, (1R,5R,6R)-3-(7-(8-ethyl-7-fluoro-3-hydroxynaphthalen-1-yl)-8-fluoro-2-(((Z)-2-(fluoromethylene)tetrahydro-1H-pyrrolizin-7a(5H)-yl)methoxy)pyrido[4,3-d]pyrimidin-4-yl)-3-azabicyclo[3.2.1]octan-6-ol] | 3 | 9 | < 2 | < 2 | < 2 | 2 | < 2 | 1 | 3 | 1 | 0.3 | < 2 | 246 |
| CCc1c(F)ccc2cc(O)cc(-c3ncc4c(N5CCC[C@]6(C5)NC(=O)NC6=O)nc(OCC56CCCN5C/C(=C\F)C6)nc4c3F)c12 (stereo partly drawn) [Example 794, (5R)-7-(7-(8-ethyl-7-fluoro-3-hydroxynaphthalen-1-yl)-8-fluoro-2-(((Z)-2-(fluoromethylene)tetrahydro-1H-pyrrolizin-7a(5H)-yl)methoxy)pyrido[4,3-d]pyrimidin-4-yl)-1,3,7-triazaspiro[4.5]decane-2,4-dione] | 32 | 26 | < 2 | < 2 | < 2 | 6 | < 2 | 5 | 27 | 12 | 1 | < 2 | 37 |
